Measured values reported in the supplement of paper PMC8837787.

Tested on: Saccharomyces cerevisiae ABC16-Green Monster
Experiment: growth inhibition at single dose (up to 150 µM), below the 70% cut-off for dose-response; higher = more potent
Conditions: 18 h; 30 °C; YPD
How it was run: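 Values are percent growth inhibition of drug-sensitive S. cerevisiae ABC16-Green Monster cells. Cells grown overnight in YPD at 30 °C were diluted to log phase (OD600 0.1–0.2), and each library compound was added at a single dose of 150 µM to 200 µl culture per well in 96-well plates, in biological duplicates, beside untreated cultures. OD600 was read at 0 h and after 18 h at 30 °C, and compounds under 70% in both replicates were not taken to dose-response.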

| SMILES | growth inhibition at single dose [%] |
| --- | --- |
| Cn1ncc(C#N)c1NC(=O)c1cccc(Oc2ccccc2)c1 | < 70 |
| CN(C)c1nc(N)nc(CN(Cc2nc(N)nc(N(C)C)n2)C23CC4CC(CC(C4)C2)C3)n1 | < 70 |
| FC(F)(F)c1cccc(CNC2CCN(CCc3ccccc3)CC2)c1 | < 70 |
| CC1=C(C#N)C(/C=N/N(C)c2ncc(C(F)(F)F)cc2Cl)CC(=O)N1 (stereo not drawn) | < 70 |
| CCn1cnc2c(Nc3cc(F)cc(F)c3)nc(C#N)nc21 | < 70 |
| CCc1ccccc1-n1c(C)cn2c3c(=O)n(C(C(=O)OC)C(C)C)c(=O)n(C)c3nc12 (stereo not drawn) | < 70 |
| Cc1ccc(S(=O)(=O)Nc2ccc(CN3CCN(C(=O)c4cccc(C#N)c4)CC3)cc2)cc1 | < 70 |
| CC(C)n1ncc2cc(C(=O)Nc3nc4c(s3)CCCC4)cnc21 | < 70 |
| Cc1ncc(-c2ccnc(Nc3ccc(S(C)(=O)=O)cc3)n2)n1C(C)C | < 70 |
| Cc1ccc(-c2cnn3c(NCCN(C)C)cc(C)nc23)cc1 | < 70 |
| CNc1snc(C)c1C(=O)OCc1coc(-c2cccs2)n1 | < 70 |
| COc1ccc(-c2cnc3cnc(-c4cccc(OC(C)C)c4)cn23)cc1 | < 70 |
| COc1ccc(C(=O)C(CCC(CNC(C)(C)C)C(=O)c2ccc(OC)cc2)CNC(C)(C)C)cc1 (stereo not drawn) | < 70 |
| OC1CCN(c2nn3cc(-c4ccccc4)nc3s2)CC1 | < 70 |
| CCOc1ccc(N2C(N)=NC(N)=NC2(C)C)cc1 | < 70 |
| O=C(Cn1ncc(Cl)c(Cl)c1=O)NCC(=O)Nc1ccc(F)c(F)c1F | < 70 |
| CCCc1ccc(S(=O)(=O)Nc2ccc(CN3CCN(CC4CC4)CC3)cc2)cc1 | < 70 |
| Cc1ccc(NC(=O)CC2COc3ccccc3O2)cc1Cl (stereo not drawn) | < 70 |
| Nn1c(SCC(=O)c2c[nH]c3ccccc23)nnc1C(F)(F)F | < 70 |
| CCOc1cc2c(cc1OCC)C(c1cc(Cl)c(O)c(OCC)c1)NCC2 (stereo not drawn) | < 70 |
| CC1CC(NC(=O)c2cc3c(=O)n4ccccc4nc3n2C)CC(C)(C)C1 (stereo not drawn) | < 70 |
| Cc1cc(OCC(=O)Nc2ccc(C(C)C)cc2)n(C)c(=O)c1C#N | < 70 |
| Cc1ccnc2nc(C(=O)Nc3cc(C(F)(F)F)ccc3N3CCCCCC3)nn12 | < 70 |
| Cc1c(C)n(CCCO)c2ncn3nc(-c4ccccc4O)nc3c12 | < 70 |

| SMILES | growth inhibition at single dose [%] |
| --- | --- |
| COc1cc(-c2nc(-c3ccccc3)c(-c3ccccc3)[nH]2)cc(OC)c1O | < 70 |
| COc1cc(C(F)(F)F)nc2ccc(C)c(N)c12 | < 70 |
| Cc1cc(=O)n2nc(-c3ccc(C(C)(C)C)cc3)cc2[nH]1 | < 70 |
| O=C(NC1CC1)c1ccc(CN(C2CC2)S(=O)(=O)c2ccccc2F)cc1 | < 70 |
| CCCCOC(=O)Nc1cc2nc(C3CCCCC3)[nH]c2cc1N1CCCC1 | < 70 |
| CCn1c(SCC(=O)Nc2cc(C(F)(F)F)ccc2Cl)nc2ccccc2c1=O | < 70 |
| CC(Oc1cccc(Cl)c1)C(=O)Nc1ccc2oc(-c3ccncc3)nc2c1 (stereo not drawn) | < 70 |
| Cc1ccc(C(=O)NC(C)C)n1C | < 70 |
| COC(=O)c1ccc(CNC(=O)NCCN2c3ccccc3CCC2C)cc1 (stereo not drawn) | < 70 |
| Fc1ccccc1-n1cnnc1SC(c1ccccc1)c1ccccc1 | < 70 |
| O=C(Nc1ccc(N2CCCCC2)c(Cl)c1)c1ccc(Br)o1 | < 70 |
| COc1ccc(-[n+]2c(C)cn3c2CCc2ccccc2-3)cc1 | < 70 |
| COc1ccccc1NC(=O)NCc1nc(-c2ccccc2)c[nH]1 | < 70 |
| CCOC(=O)C1CCN(C(=O)CN2C(=O)c3ccccc3C2c2c[nH]c3ccccc23)CC1 (stereo not drawn) | < 70 |
| O=C(NC1CCN(Cc2ccccc2)CC1)c1cc(C(=O)NC2CCN(Cc3ccccc3)CC2)cc(C(=O)NC2CCN(Cc3ccccc3)CC2)c1 | < 70 |
| CCc1ccc(Nc2cc(C)nc3nc(C)nn23)cc1 | < 70 |
| O=C(Nc1ccc(Cl)cc1)N1CCN(c2ccc3nncn3n2)CC1 | < 70 |
| COCCNC(=O)c1ccc(OC2CCN(Cc3ccc(F)c(F)c3)CC2)c(Cl)c1 | < 70 |
| CN(C)c1ccc(N2C(N)=NC(N)=NC2(C)C)cc1 | < 70 |
| O=C(Nc1ccc(I)cc1)C1CCN(C(=O)c2ccncc2)CC1 | < 70 |
| CC(C(=O)NC(N)=O)N(C)Cc1ccc(OCc2ccc(Cl)cc2)cc1 (stereo not drawn) | < 70 |
| Clc1ccc(-n2cc(COc3ccnc4ccccc34)nn2)cc1 | < 70 |
| CC1=C(C(=O)Nc2ccccc2)C(c2ccco2)C(C#N)=C(SCc2ccccc2Cl)N1 (stereo not drawn) | < 70 |
| COc1ccccc1CNC(=O)c1cc(C2CC2)nc2c1cnn2C(C)C | < 70 |

| SMILES | growth inhibition at single dose [%] |
| --- | --- |
| O=C(Nc1nnc(-c2ccc(Cl)s2)o1)c1ccc(Cl)s1 | < 70 |
| COc1ccc(CNC(=O)c2cc3c(=O)n4ccccc4nc3n(CCc3ccccc3)c2=N)cc1 | < 70 |
| O=C(Nc1ccccc1O)c1ccc(Oc2cccc(C(=O)Nc3ccccc3O)c2)cc1 | < 70 |
| CCN1CCN(c2c(C(=O)c3ccccc3)cnc3cc(OC)c(OC)cc23)CC1 | < 70 |
| N=C(N)Nc1ccc(-c2ccc(-c3ccc(N=C(N)N)c(Cl)c3)o2)cc1Cl | < 70 |
| CN(C)CC(C)(C)CNc1nn2cc(-c3ccccc3)nc2s1 | < 70 |
| COc1ccc2c(c1)CCCN2C(=O)c1occc1C | < 70 |
| COCc1[nH]n2c3cccc(=O)c-3nnc2c1-c1ccccc1 | < 70 |
| CCN1CCN(Cc2ccc(NC(=O)c3cc4ccc5cccnc5c4[nH]3)cc2)CC1 | < 70 |
| O=C(NC1CC1)c1ccc(CN(Cc2ccco2)Cc2nc(-c3ccc(F)cc3)no2)cc1 | < 70 |
| CC(C)(C)c1ccc(C(=O)Nc2nc3ccccc3s2)cc1 | < 70 |
| O=C(Nc1ccccc1)c1cn(-c2ccc3c(c2)OCCO3)nn1 | < 70 |
| c1ccc2c(c1)[nH]c1nc(SCc3cn4ccsc4n3)nnc12 | < 70 |
| CN(C)S(=O)(=O)c1ccc2oc(SCC(=O)Nc3cc(C(C)(C)C)no3)nc2c1 | < 70 |
| CN(Cc1c(F)cccc1Cl)C(=O)COc1ccc2[nH]c3ccccc3c(=O)c2c1 | < 70 |
| CNc1snc(C)c1C(=O)N(C)Cc1ccc(C(C)C)cc1 | < 70 |
| O=C(O)c1c2c(nc3ccccc13)/C(=C/c1ccccc1Cl)CC2 | < 70 |
| C/N=c1\scc(-c2ccccc2OC)n1/N=C/c1ccc[nH]1 | < 70 |
| COc1ccc(N(Cc2nc(-c3cccs3)oc2C)S(=O)(=O)c2cccs2)cc1 | < 70 |
| N#CC(C(=O)c1cc(S(=O)(=O)N2CCc3ccccc3C2)ccc1Cl)c1ccccn1 (stereo not drawn) | < 70 |
| CC(C)c1ncc(-c2ccncc2)c([C@H]2CC[C@H](CNC(=O)c3cccnc3)CC2)n1 | < 70 |
| O=c1cc(-c2ccccc2)[nH]c2ccccc12 | < 70 |
| c1ccc(NCCNc2nc(-c3ccncc3)nc3ccccc23)nc1 | < 70 |
| O=C(NCc1ccco1)N1CCN(Cc2ccc(Cl)s2)CC1 | < 70 |

| SMILES | growth inhibition at single dose [%] |
| --- | --- |
| c1ccc2c(NCc3ccc(N4CCCC4)nc3)ncnc2c1 | < 70 |
| CCOC(=O)C1=C(C)N=c2sc(=Cc3cc(Cl)ccc3O)c(=O)n2C1c1ccc(OC)cc1 (stereo not drawn) | < 70 |
| COc1cc(C(=O)c2c(-c3ccccc3)cc3ccccn23)cc(OC)c1OC | < 70 |
| COc1ccc(/C=C2\N=C(SCC(=O)O)N(Cc3ccccc3)C2=O)cc1 | < 70 |
| COc1ccc(-c2nc(NC(=O)CS(=O)(=O)c3ccc(F)cc3)sc2C)cc1 | < 70 |
| N=c1n(CCN2CCCCC2)c2ccccc2n1CC(=O)c1ccc(Cl)c(Cl)c1 | < 70 |
| Cn1ncc2c(N3CCN(CC(=O)Nc4nc(-c5c[nH]c6ccccc56)cs4)CC3)ncnc21 | < 70 |
| CC(C)(C)n1nc(Cc2ccc(F)c(Cl)c2)c2c(N)ncnc21 | < 70 |
| CC(C)n1ncc2cc(C(=O)Nc3nc(-c4ccccn4)cs3)cnc21 | < 70 |
| Oc1ccccc1CNCC12CC3CC(CC(C3)C1)C2 | < 70 |
| Clc1cc(Br)ccc1-c1ccc(CNCC2CCNCC2)o1 | < 70 |
| CC(C)(C(=O)Nc1ccc(F)cc1)n1cc(-c2ccccc2F)cn1 | < 70 |
| Nc1c2c(nc3sc4c(c13)CCCC4)CCCC2 | < 70 |
| CNc1nnc(Sc2ncnc3ccsc23)s1 | < 70 |
| Cc1ccc2nc(C)cc(Nc3cccc(C(F)(F)F)c3)c2c1 | < 70 |
| CCOC(=O)CSCc1noc(COc2ccc(Cl)cc2Cl)n1 | < 70 |
| CCOc1ccc(Nc2c3ccccc3nc3ccccc23)cc1 | < 70 |
| Cc1ccc(NC(=O)c2cc(C(C)(C)C)n(-c3ccccc3)c2C)cc1 | < 70 |
| O=C(Nc1ccc2nc(-c3ccccc3Cl)[nH]c2c1)c1ccc(=O)[nH]n1 | < 70 |
| CC(=O)Nc1cccc2c1CCN(c1ncnc3sccc13)C2 | < 70 |
| O=[N+]([O-])c1cn2c(n1)OC[C@@H](OCc1ccc(OC(F)(F)F)cc1)C2 | < 70 |
